Data taken from patent publication US8252832B2, “Kinesin inhibitors as cancer therapeutics” (Novartis AG, priority 2007, dated 2012).
Where two headings read alike, the source gives them in different places.

Tested on: panel of cell lines derived from hematological malignancies
Test: Cell survival assay, CellTiter-Glo readout after 48 hours, hematological panel
Format: cell-based
Set-up: key to Differential: panel average log(GI50) minus cell line log(GI50); positive = more sensitive
Protocol: Compound IIa was tested against a panel of cell lines derived from hematological malignancies in a cell survival assay using CellTiter-Glo® as a readout after 48 hours in the presence of compound. Table 18 lists the type of hematological malignancy, the name of the sample, its GI50 (concentration needed to achieve 50% growth inhibition) value in the assay, the logarithm of the GI50 (log(GI50), and the relative sensitivity of each sample (Differential). The differential is calculated by subtracting the log(GI50) for each cell line from the average log(GI50) across the entire panel (0.236 in this case); a positive value indicates a sample that is more sensitive than average, whereas a negative value indicates a sample that is less sensitive than average.

`CC(C)(C)[C@H](c1nc(-c2cc(F)ccc2F)cn1Cc1ccccc1)N(CC[C@H](N)CF)C(=O)CO` [Compound IIa] showed a Differential (697 (ALL)) of 0.613, a GI50 (48 h, 697 (ALL), read-out: GI50) of 0.11 nM and a GI50 (48 h, 697 (ALL), read-out: Log(GI50) (converted)) of 0.105 nM. For the same compound, the GI50 (48 h, AML-193 (AML), read-out: GI50) was 0.11 nM, the GI50 (48 h, AML-193 (AML), read-out: Log(GI50) (converted)) was 0.11 nM and the GI50 (48 h, DEL (NHL), read-out: GI50) was 0.28 nM. It also gave a GI50 (48 h, DEL (NHL), read-out: Log(GI50) (converted)) of 0.283 nM, a GI50 (48 h, H929-Luc (MM), read-out: GI50) of 1.69 nM and a GI50 (48 h, H929-Luc (MM), read-out: Log(GI50) (converted)) of 1.69 nM. It also gave a GI50 (48 h, HEL92 (AML), read-out: GI50) of 0.49 nM, a GI50 (48 h, HEL92 (AML), read-out: Log(GI50) (converted)) of 0.49 nM and a GI50 (48 h, HH (NHL), read-out: GI50) of 0.22 nM. For the same compound, the GI50 (48 h, HH (NHL), read-out: Log(GI50) (converted)) was 0.215 nM, the GI50 (48 h, KMS11-Luc (MM), read-out: GI50) was 0.29 nM and the GI50 (48 h, KMS11-Luc (MM), read-out: Log(GI50) (converted)) was 0.29 nM. The GI50 (48 h, KMS12 (MM), read-out: GI50) was 0.29 nM, the GI50 (48 h, KMS12 (MM), read-out: Log(GI50) (converted)) was 0.29 nM and the GI50 (48 h, KMS18-Luc (MM), read-out: GI50) was 0.52 nM. It also gave a GI50 (48 h, KMS18-Luc (MM), read-out: Log(GI50) (converted)) of 0.518 nM, a GI50 (48 h, Karpas-299-Luc (NHL), read-out: GI50) of 20.2 nM and a GI50 (48 h, Karpas-299-Luc (NHL), read-out: Log(GI50) (converted)) of 20.2 nM. It also gave a GI50 (48 h, LP1 (MM), read-out: GI50) of 0.21 nM, a GI50 (48 h, LP1 (MM), read-out: Log(GI50) (converted)) of 0.205 nM and a GI50 (48 h, MHH-CALL-2 (ALL), read-out: GI50) of 0.32 nM. For the same compound, the GI50 (48 h, MHH-CALL-2 (ALL), read-out: Log(GI50) (converted)) was 0.315 nM, the GI50 (48 h, MHH-CALL-3 (ALL), read-out: GI50) was 0.2 nM and the GI50 (48 h, MHH-CALL-3 (ALL), read-out: Log(GI50) (converted)) was 0.2 nM. For the same compound, the GI50 (48 h, MM1-S-Luc (MM), read-out: GI50) was 0.23 nM, the GI50 (48 h, MM1-S-Luc (MM), read-out: Log(GI50) (converted)) was 0.23 nM and the GI50 (48 h, MOLM13-Luc (AML), read-out: GI50) was 0.23 nM. For the same compound, the GI50 (48 h, MOLM13-Luc (AML), read-out: Log(GI50) (converted)) was 0.226 nM, the GI50 (48 h, MUTZ-5 (ALL), read-out: GI50) was 10 nM and the GI50 (48 h, MUTZ-5 (ALL), read-out: Log(GI50) (converted)) was 10 nM. The GI50 (48 h, MV4, 11Luc (AML), read-out: GI50) was 0.11 nM, the GI50 (48 h, MV4, 11Luc (AML), read-out: Log(GI50) (converted)) was 0.105 nM and the GI50 (48 h, Mean across the entire panel, read-out: GI50) was 0.43 nM. For the same compound, the GI50 (48 h, Mean across the entire panel, read-out: Log(GI50) (converted)) was 0.431 nM, the GI50 (48 h, NALM-19 (ALL), read-out: GI50) was 0.19 nM and the GI50 (48 h, NALM-19 (ALL), read-out: Log(GI50) (converted)) was 0.19 nM. It also gave a GI50 (48 h, REH (ALL), read-out: GI50) of 0.18 nM, a GI50 (48 h, REH (ALL), read-out: Log(GI50) (converted)) of 0.18 nM and a GI50 (48 h, RL (NHL), read-out: GI50) of 20 nM. For the same compound, the GI50 (48 h, RL (NHL), read-out: Log(GI50) (converted)) was 20 nM, the GI50 (48 h, SEM-Luc (ALL), read-out: GI50) was 0.15 nM and the GI50 (48 h, SEM-Luc (ALL), read-out: Log(GI50) (converted)) was 0.15 nM. The GI50 (48 h, SR (NHL), read-out: GI50) was 0.11 nM, the GI50 (48 h, SR (NHL), read-out: Log(GI50) (converted)) was 0.11 nM and the GI50 (48 h, TANOUE (ALL), read-out: GI50) was 10 nM. The GI50 (48 h, TANOUE (ALL), read-out: Log(GI50) (converted)) was 10 nM, the GI50 (48 h, YT (ALL), read-out: GI50) was 10 nM and the GI50 (48 h, YT (ALL), read-out: Log(GI50) (converted)) was 10 nM. The GI50 (48 h, hematological panel, read-out: average log(GI50) across the entire panel (converted)) was 1.72 nM, the Differential (AML-193 (AML)) was 0.593 and the Differential (CCRF-CEM (ALL)) was 0.419. For the same compound, the Differential (CCRF-HSB-2 (ALL)) was 0.367, the Differential (DEL (NHL)) was 0.182 and the Differential (DOHH2 (NHL)) was 0.263. The Differential (H929 (MM)) was 0.109, the Differential (H929-Luc (MM)) was −0.593 and the Differential (HDLM-2 (HL)) was 0.555. It also gave a Differential (HEL92 (AML)) of −0.056, a Differential (HH (NHL)) of 0.301 and a Differential (HL60 (AML)) of 0.416. The Differential (HL60-Luc (AML)) was −0.072, the GI50 (HL-60-Luc, 48 h, HL60-Luc (AML), read-out: GI50) was 0.51 nM and the GI50 (HL-60-Luc, 48 h, HL60-Luc (AML), read-out: Log(GI50) (converted)) was 0.508 nM. For the same compound, the GI50 (Homo sapiens, CCRF-CEM, 48 h, CCRF-CEM (ALL), read-out: GI50) was 0.16 nM, the GI50 (Homo sapiens, CCRF-CEM, 48 h, CCRF-CEM (ALL), read-out: Log(GI50) (converted)) was 0.164 nM and the GI50 (Homo sapiens, CCRF-HSB-2, 48 h, CCRF-HSB-2 (ALL), read-out: GI50) was 0.19 nM. It also gave a GI50 (Homo sapiens, CCRF-HSB-2, 48 h, CCRF-HSB-2 (ALL), read-out: Log(GI50) (converted)) of 0.185 nM, a GI50 (Homo sapiens, DOHH-2, 48 h, DOHH2 (NHL), read-out: GI50) of 0.24 nM and a GI50 (Homo sapiens, DOHH-2, 48 h, DOHH2 (NHL), read-out: Log(GI50) (converted)) of 0.235 nM. For the same compound, the GI50 (Homo sapiens, HDLM-2, 48 h, HDLM-2 (HL), read-out: GI50) was 0.12 nM, the GI50 (Homo sapiens, HDLM-2, 48 h, HDLM-2 (HL), read-out: Log(GI50) (converted)) was 0.12 nM and the GI50 (Homo sapiens, HL-60, 48 h, HL60 (AML), read-out: GI50) was 0.17 nM. It also gave a GI50 (Homo sapiens, HL-60, 48 h, HL60 (AML), read-out: Log(GI50) (converted)) of 0.165 nM, a GI50 (Homo sapiens, HuT78, 48 h, HuT78 (NHL), read-out: GI50) of 0.28 nM and a GI50 (Homo sapiens, HuT78, 48 h, HuT78 (NHL), read-out: Log(GI50) (converted)) of 0.275 nM. For the same compound, the GI50 (Homo sapiens, K562, 48 h, K562 (CML), read-out: GI50) was 0.21 nM, the GI50 (Homo sapiens, K562, 48 h, K562 (CML), read-out: Log(GI50) (converted)) was 0.209 nM and the GI50 (Homo sapiens, KARPAS-299, 48 h, Karpas-299 (NHL), read-out: GI50) was 0.2 nM. For the same compound, the GI50 (Homo sapiens, KARPAS-299, 48 h, Karpas-299 (NHL), read-out: Log(GI50) (converted)) was 0.2 nM, the GI50 (Homo sapiens, KARPAS-422, 48 h, Karpas-422 (NHL), read-out: GI50) was 5.14 nM and the GI50 (Homo sapiens, KARPAS-422, 48 h, Karpas-422 (NHL), read-out: Log(GI50) (converted)) was 5.14 nM. It also gave a GI50 (Homo sapiens, KM-H2, 48 h, KM-H2 (HL), read-out: GI50) of 0.23 nM, a GI50 (Homo sapiens, KM-H2, 48 h, KM-H2 (HL), read-out: Log(GI50) (converted)) of 0.233 nM and a GI50 (Homo sapiens, KMS-11, 48 h, KMS11 (MM), read-out: GI50) of 0.48 nM. It also gave a GI50 (Homo sapiens, KMS-11, 48 h, KMS11 (MM), read-out: Log(GI50) (converted)) of 0.483 nM, a GI50 (Homo sapiens, Kasumi 1, 48 h, Kasumi-1 (AML), read-out: GI50) of 0.44 nM and a GI50 (Homo sapiens, Kasumi 1, 48 h, Kasumi-1 (AML), read-out: Log(GI50) (converted)) of 0.44 nM. It also gave a GI50 (Homo sapiens, L-363, 48 h, L363 (MM), read-out: GI50) of 0.13 nM, a GI50 (Homo sapiens, L-363, 48 h, L363 (MM), read-out: Log(GI50) (converted)) of 0.13 nM and a GI50 (Homo sapiens, L-428, 48 h, L428 (HL), read-out: GI50) of 20 nM. It also gave a GI50 (Homo sapiens, L-428, 48 h, L428 (HL), read-out: Log(GI50) (converted)) of 20 nM.
